For 15 compounds, IC50 results are on record in publication doi:10.1101/2022.03.05.483025v1 (biorxiv, 2022).

Read-outs that look alike come from different tables or passages of the source.

Assay [1] deals with T1, SARS-CoV-1 Mpro (Severe acute respiratory syndrome-related coronavirus, UniProt P0C6X7). The assay is described as follows: biochemical.
Assay [2] has as its target T2, SARS-CoV-2 Mpro (Severe acute respiratory syndrome coronavirus 2, UniProt P0DTD1). The assay is described as follows: rhodamine-based substrate peptide activity assay. It is filed as biochemical.
In assay [3] the target is T3, MERS-CoV Mpro (Betacoronavirus England 1, UniProt K9N7C7). The assay is described as follows: biochemical.
T3 sequence (K9N7C7 3248-3553 limits assumed): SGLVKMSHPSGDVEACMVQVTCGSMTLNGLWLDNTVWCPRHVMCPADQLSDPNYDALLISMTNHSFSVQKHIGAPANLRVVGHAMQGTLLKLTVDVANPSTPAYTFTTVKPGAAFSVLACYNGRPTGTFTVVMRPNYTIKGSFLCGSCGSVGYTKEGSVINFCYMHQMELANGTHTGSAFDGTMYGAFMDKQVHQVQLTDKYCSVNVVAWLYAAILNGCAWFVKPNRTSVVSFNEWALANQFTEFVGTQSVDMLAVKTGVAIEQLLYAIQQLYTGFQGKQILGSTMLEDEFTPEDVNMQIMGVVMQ
In assay [4] the target is T4, HCoV-229E Mpro (Human coronavirus 229E, UniProt P0C6X1). The assay is described as follows: biochemical.
Target sequence in this assay (P0C6X1 2966-3267 limits assumed): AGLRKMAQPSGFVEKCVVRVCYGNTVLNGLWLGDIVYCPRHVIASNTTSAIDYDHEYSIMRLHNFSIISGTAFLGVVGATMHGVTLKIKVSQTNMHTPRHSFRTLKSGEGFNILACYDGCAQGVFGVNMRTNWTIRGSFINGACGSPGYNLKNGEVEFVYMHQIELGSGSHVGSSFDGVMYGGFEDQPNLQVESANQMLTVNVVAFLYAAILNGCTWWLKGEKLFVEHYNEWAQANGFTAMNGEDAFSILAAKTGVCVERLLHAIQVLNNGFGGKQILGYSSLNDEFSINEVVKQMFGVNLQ
For assay [5], the target named is T5, HCoV-HKU1 Mpro (Human coronavirus HKU1 (isolate N1), UniProt P0C6X2). The assay is described as follows: biochemical.
Target sequence in this assay (P0C6X2 3335-3637 limits assumed): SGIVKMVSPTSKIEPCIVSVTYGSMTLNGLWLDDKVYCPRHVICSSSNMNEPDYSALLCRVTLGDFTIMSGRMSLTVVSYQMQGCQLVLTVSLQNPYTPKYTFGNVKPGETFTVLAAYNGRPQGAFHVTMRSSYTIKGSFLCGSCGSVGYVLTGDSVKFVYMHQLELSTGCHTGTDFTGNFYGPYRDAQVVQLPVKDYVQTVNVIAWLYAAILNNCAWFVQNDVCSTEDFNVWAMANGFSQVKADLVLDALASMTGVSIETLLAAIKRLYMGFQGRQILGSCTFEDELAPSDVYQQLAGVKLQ
The target of assay [6] is T2, SARS-CoV-2 Mpro. The assay is described as follows: biochemical.
For assay [7], the target named is T3, MERS-CoV Mpro. The assay is described as follows: biochemical. This is another data set of the same source.
Assay [8] addresses T6, HCoV-NL63 Mpro (Human coronavirus NL63, UniProt P0C6X5). The assay is described as follows: biochemical.
Target sequence in this assay (P0C6X5 2940-3242 limits assumed): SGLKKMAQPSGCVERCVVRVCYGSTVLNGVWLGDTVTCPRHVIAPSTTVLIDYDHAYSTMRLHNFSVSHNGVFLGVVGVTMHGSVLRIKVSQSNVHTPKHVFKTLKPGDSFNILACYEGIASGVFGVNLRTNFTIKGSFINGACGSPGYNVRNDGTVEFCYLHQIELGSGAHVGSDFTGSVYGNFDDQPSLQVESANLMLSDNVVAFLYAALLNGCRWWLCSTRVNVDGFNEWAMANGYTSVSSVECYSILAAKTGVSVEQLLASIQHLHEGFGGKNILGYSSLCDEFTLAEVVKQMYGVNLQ
Assay [9] concerns the target T7, PorCoV-HKU15 Mpro (Porcine coronavirus HKU15, UniProt H9BQY4). The conditions noted are these: covalent.
In assay [10] the target is T6, HCoV-NL63 Mpro. The assay is described as follows: biochemical. This is another data set of the same source.
Target sequence in this assay (P0C6X5 2940-3242): as the sequence (P0C6X5 2940-3242 limits assumed) above
For assay [11], the target named is T4, HCoV-229E Mpro. The assay is described as follows: biochemical. This is another data set of the same source.
Target sequence in this assay (P0C6X1 2966-3267): as the sequence (P0C6X1 2966-3267 limits assumed) above
The target of assay [12] is T2, SARS-CoV-2 Mpro. The assay is described as follows: biochemical. The source holds these as a separate data set.
Assay [13] addresses T7, PorCoV-HKU15 Mpro. The settings on record: covalent. This is another data set of the same source.
Assay [14] deals with T3, MERS-CoV Mpro. The assay is described as follows: biochemical. The source holds these as a separate data set.
Assay [15] deals with T5, HCoV-HKU1 Mpro. The assay is described as follows: biochemical. The source holds these as a separate data set.
Target sequence in this assay (P0C6X2 3335-3637): as the sequence (P0C6X2 3335-3637 limits assumed) above
In assay [16] the target is T2, SARS-CoV-2 Mpro. The assay is described as follows: Mpro substrate activity assay. The class given is biochemical.
Assay [17] deals with T6, HCoV-NL63 Mpro. The assay is described as follows: RapidFire MS substrate peptide activity assay. It is filed as biochemical.
Target sequence in this assay (P0C6X5 2940-3242): as the sequence (P0C6X5 2940-3242 limits assumed) above
The target of assay [18] is T4, HCoV-229E Mpro. The assay is described as follows: RapidFire MS substrate peptide activity assay. The class given is biochemical.
Target sequence in this assay (P0C6X1 2966-3267): as the sequence (P0C6X1 2966-3267 limits assumed) above
The target of assay [19] is T5, HCoV-HKU1 Mpro. The assay is described as follows: RapidFire MS substrate peptide activity assay. It is filed as biochemical.
Target sequence in this assay (P0C6X2 3335-3637): as the sequence (P0C6X2 3335-3637 limits assumed) above
Assay [20] has as its target T2, SARS-CoV-2 Mpro. The assay is described as follows: RapidFire MS substrate peptide activity assay. The class given is biochemical.
Another assay concerns the target HCoV-OC43 Mpro (Human coronavirus OC43, UniProt P0C6X6). The assay is described as follows: RapidFire MS substrate peptide activity assay. The class given is biochemical.
Assay [21] has as its target avian infectious bronchitis virus (IBV) Mpro (Avian infectious bronchitis virus (strain Beaudette), UniProt P0C6Y1). The assay is described as follows: RapidFire MS substrate peptide activity assay. It is filed as biochemical.
Assay [22] concerns the target T1, SARS-CoV-1 Mpro. The assay is described as follows: biochemical. The source holds these as a separate data set.
Where [23] appears, read: read-out: HW-1-87A (trans), covalent.
Setting [24] is: read-out: PM-2-20A (trans), covalent.
Setting [25] is: read-out: PM-2-27A (trans), covalent.
The mark [26] stands for this setting: read-out: hidden head, 8th column, covalent.

T7 sequence (H9BQY4 2509-2811 limits assumed): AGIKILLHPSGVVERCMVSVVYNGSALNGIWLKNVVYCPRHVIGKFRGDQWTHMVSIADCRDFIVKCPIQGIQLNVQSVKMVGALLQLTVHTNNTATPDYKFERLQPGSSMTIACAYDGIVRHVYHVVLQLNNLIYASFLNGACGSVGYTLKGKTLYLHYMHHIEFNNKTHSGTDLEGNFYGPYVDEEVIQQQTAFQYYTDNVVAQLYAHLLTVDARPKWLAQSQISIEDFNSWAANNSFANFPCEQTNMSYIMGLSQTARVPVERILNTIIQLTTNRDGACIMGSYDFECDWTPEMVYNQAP
Sequence of avian infectious bronchitis virus (IBV) Mpro (P0C6Y1 2780-3086): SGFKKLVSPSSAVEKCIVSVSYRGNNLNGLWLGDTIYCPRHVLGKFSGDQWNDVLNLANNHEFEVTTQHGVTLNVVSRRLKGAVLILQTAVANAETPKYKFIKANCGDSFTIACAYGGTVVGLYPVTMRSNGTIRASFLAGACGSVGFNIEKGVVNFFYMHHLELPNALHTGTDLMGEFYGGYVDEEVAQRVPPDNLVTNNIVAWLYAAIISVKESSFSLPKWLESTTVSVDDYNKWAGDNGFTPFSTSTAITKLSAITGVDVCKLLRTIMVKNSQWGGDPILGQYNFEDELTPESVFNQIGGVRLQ
Sequence of HCoV-OC43 Mpro (P0C6X6 3247-3549): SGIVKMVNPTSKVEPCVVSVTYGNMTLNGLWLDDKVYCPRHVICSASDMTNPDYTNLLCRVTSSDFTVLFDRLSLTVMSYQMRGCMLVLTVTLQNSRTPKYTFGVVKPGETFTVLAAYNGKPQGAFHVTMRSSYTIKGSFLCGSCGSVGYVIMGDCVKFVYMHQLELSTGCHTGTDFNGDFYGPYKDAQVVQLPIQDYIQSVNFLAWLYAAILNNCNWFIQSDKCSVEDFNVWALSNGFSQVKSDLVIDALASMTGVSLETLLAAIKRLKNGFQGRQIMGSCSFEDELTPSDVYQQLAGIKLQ

On to `O=C(CCl)N1N=C(c2ccccc2)CC1c1cccc2nccnc12` (racemic) [EN82], for which the IC50 against SARS-CoV-1 Mpro [1] amounted to 59 nM; against SARS-CoV-2 Mpro [2], 91 nM; against MERS-CoV Mpro [3], 560 nM.
Consider `O=C(CCl)N1N=C(c2ccccc2)[C@H](c2ccccc2)[C@H]1c1ccc2nccnc2c1` (relative stereo) [HW-1-87A (trans)], for which the IC50 is 30 nM on HCoV-229E Mpro [4] (setting [23]); 40 nM at HCoV-HKU1 Mpro [5] (setting [23]); 85 nM at SARS-CoV-2 Mpro [6] (setting [23]); 340 nM on MERS-CoV Mpro [7] (setting [23]); 140 nM on HCoV-NL63 Mpro [8] (setting [23]); 4900 nM at PorCoV-HKU15 Mpro [9] (read-out: HW-1-87A (trans)).
Regarding `O=C(CCl)N1N=C(c2ccccc2)[C@H](c2ccccc2)[C@@H]1c1ccc2nccnc2c1` (relative stereo) [HW-1-187B, cis-HW-1-187B], the IC50 worked out at 56 nM against HCoV-NL63 Mpro [10]; 22 nM on SARS-CoV-2 Mpro [2]; 2.3 nM against HCoV-229E Mpro [11]; 1.4 nM against SARS-CoV-2 Mpro [12]; 6300 nM at PorCoV-HKU15 Mpro [13] (read-out: HW-1-187B (cis)); 1300 nM against MERS-CoV Mpro [14]. In addition, the IC50 against HCoV-HKU1 Mpro [15] came out at 16 nM.
On SARS-CoV-2 Mpro [2], `O=C(CCl)N1N=C(c2cc(Cl)ccc2F)[C@H](c2ccccc2)[C@@H]1c1ccc2nccnc2c1` (relative stereo) [HW-2-010B] came in with an IC50 of 14 nM.
`O=C(CCl)N1N=C(c2ccccc2)[C@H](c2ccccc2)[C@H]1c1ccccc1` (relative stereo) [PM-2-20A (trans)]: the IC50 is 3.6 nM at HCoV-229E Mpro [4] (setting [24]); 36 nM on HCoV-HKU1 Mpro [5] (setting [24]); 28 nM at SARS-CoV-2 Mpro [6] (setting [24]); 3700 nM on MERS-CoV Mpro [7] (setting [24]); 67 nM on HCoV-NL63 Mpro [8] (setting [24]); 4800 nM on PorCoV-HKU15 Mpro [9] (read-out: PM-2-20A (trans)).
Turning to `O=C(CCl)N1N=C(c2ccccc2)[C@H](c2ccccc2)[C@@H]1c1ccccc1` (relative stereo) [PM-2-020B, cis-PM-02-020B], the IC50 against HCoV-NL63 Mpro [10] is 350 nM; at SARS-CoV-2 Mpro [2] it was 62 nM; at HCoV-229E Mpro [11] it was 23 nM; against SARS-CoV-2 Mpro [12], 5.3 nM; at PorCoV-HKU15 Mpro [13] (read-out: PM-2-20B (cis)), 1100 nM; at MERS-CoV Mpro [14] it was 2800 nM. The compound further displayed an IC50 at HCoV-HKU1 Mpro [15] of 200 nM.
Consider `O=C(CCl)N1N=C(c2ccccc2)[C@H](c2ccccc2)[C@H]1c1cccc2nccnc12` (relative stereo) [PM-2-27A (trans)], for which the IC50 on HCoV-229E Mpro [4] (setting [25]) was 46 nM; at HCoV-HKU1 Mpro [5] (setting [25]), 60 nM; at SARS-CoV-2 Mpro [6] (setting [25]), 110 nM; at MERS-CoV Mpro [7] (setting [25]), 3300 nM; on HCoV-NL63 Mpro [8] (setting [25]) it was 92 nM; on PorCoV-HKU15 Mpro [9] (read-out: PM-2-27A (trans)) it was 5400 nM.
Regarding `C=CS(=O)(=O)N1N=C(c2cc(Cl)ccc2F)[C@H](c2ccccc2)[C@@H]1c1ccc2nccnc2c1` (relative stereo) [PM-2-071B], the IC50 against SARS-CoV-2 Mpro [2] is 91 nM.
In turn, `O=C(CCl)N1N=C(c2ccccc2)C[C@H]1c1cccc2nccnc12` [(S)-EN82] gave an IC50 against SARS-CoV-2 Mpro [16] of 2700 nM.
In the case of `C=CS(=O)(=O)N1N=C(c2cc(Cl)ccc2F)[C@@H](c2ccccc2)[C@H]1c1ccc2nccnc2c1` [(S,S)-PM-2-071, (S,S)-enantiomer of PM-2-071B], at SARS-CoV-2 Mpro [2], the IC50 amounted to 35 nM.
Regarding `O=C(CCl)N1N=C(c2cccc(Cl)c2)CC1c1cccc2nccnc12` (stereo not drawn) [LEB-2-172], the IC50 on HCoV-229E Mpro [4] was determined as 5.5 nM; against HCoV-HKU1 Mpro [5] it was 0.96 nM; against SARS-CoV-2 Mpro [6] it was 0.89 nM; at MERS-CoV Mpro [7] it was 38 nM; against HCoV-NL63 Mpro [8], 11 nM.
Take `O=C(CCl)N1N=C(c2cc(F)cc(Cl)c2)CC1c1cccc2nccnc12` (stereo not drawn) [LEB-3-004]: the IC50 at HCoV-229E Mpro [4] turned out to be 5.3 nM; against HCoV-HKU1 Mpro [5], 2.3 nM; against SARS-CoV-2 Mpro [6] it was 1.6 nM; against MERS-CoV Mpro [7], 100 nM; on HCoV-NL63 Mpro [8] it was 25 nM; on PorCoV-HKU15 Mpro [9] (read-out: LEB-3-004), 2100 nM.
`O=C(CCl)N1N=C(c2ccccc2)CC1c1cccnc1` (stereo not drawn) [NJH-1-147]: the IC50 turned out to be 54 nM against HCoV-229E Mpro [4]; 26 nM against HCoV-HKU1 Mpro [5]; 58 nM against SARS-CoV-2 Mpro [6]; 7200 nM at MERS-CoV Mpro [7]; 330 nM at HCoV-NL63 Mpro [8]; 11000 nM on PorCoV-HKU15 Mpro [9] (read-out: hidden head, 7th column).
For the compound `O=C(CCl)N1N=C(c2ccccc2)CC1c1ccnc2[nH]ccc12` (stereo not drawn) [NJH-1-159], the IC50 on HCoV-229E Mpro [4] (setting [26]) was 19 nM; at HCoV-HKU1 Mpro [5] (setting [26]), 8.9 nM; at SARS-CoV-2 Mpro [6] (setting [26]), 20 nM; on MERS-CoV Mpro [7] (setting [26]), 960 nM; on HCoV-NL63 Mpro [8] (setting [26]), 110 nM; on PorCoV-HKU15 Mpro [9] (read-out: hidden head, 8th column) it was 9300 nM.
For `C=CS(=O)(=O)N1N=C(c2cc(Cl)ccc2F)C(c2ccccc2)C1c1ccc2nccnc2c1` (stereo not drawn) [PM-2-071], the IC50 is less than 1000 nM on HCoV-NL63 Mpro [17]; less than 1000 nM at HCoV-229E Mpro [18]; less than 2 nM against HCoV-HKU1 Mpro [19]; less than 2 nM at SARS-CoV-2 Mpro [20]; less than 2 nM at HCoV-OC43 Mpro; less than 1000 nM in assay [21]. Moreover, the IC50 at SARS-CoV-1 Mpro [22] was less than 1000 nM.
